Measured values reported in US20250339425A1 (Northeastern University, priority 2024, published 2025).
Where two headings read alike, the source gives them in different places.

Assays:
α9 nAChR [1] = biological target: T1, α9 nAChR (Homo sapiens, UniProt Q9UGM1); conditions: for EC50: read-out: α9 EC50
[2] = In vitro metabolic stability in rat hepatocytes
[3] = In vitro metabolic stability in pooled human liver microsomes
human α7 nAChR = human α7 nAChR (Homo sapiens, UniProt P36544)
α9 nAChR [4] = biological target: T1, α9 nAChR; assay: cell-based
α9α10 nAChR = biological target: T2, α9α10 nAChR (Homo sapiens, UniProt Q9GZZ6+Q9UGM1); assay: Inhibition of ACh-evoked currents, co-application with 60 μM ACh, oocytes expressing α9α10; type: cell-based; conditions: co-applied with 60 μM ACh; unit not printed for these values (α9 values in μM); read-out: IC50 as antagonist on α9α10
T2 construct: expressed in transfected cells; host or cells: Xenopus laevis oocytes injected with in vitro transcribed RNA
T2 sequence (Q9UGM1 26-479 limits assumed): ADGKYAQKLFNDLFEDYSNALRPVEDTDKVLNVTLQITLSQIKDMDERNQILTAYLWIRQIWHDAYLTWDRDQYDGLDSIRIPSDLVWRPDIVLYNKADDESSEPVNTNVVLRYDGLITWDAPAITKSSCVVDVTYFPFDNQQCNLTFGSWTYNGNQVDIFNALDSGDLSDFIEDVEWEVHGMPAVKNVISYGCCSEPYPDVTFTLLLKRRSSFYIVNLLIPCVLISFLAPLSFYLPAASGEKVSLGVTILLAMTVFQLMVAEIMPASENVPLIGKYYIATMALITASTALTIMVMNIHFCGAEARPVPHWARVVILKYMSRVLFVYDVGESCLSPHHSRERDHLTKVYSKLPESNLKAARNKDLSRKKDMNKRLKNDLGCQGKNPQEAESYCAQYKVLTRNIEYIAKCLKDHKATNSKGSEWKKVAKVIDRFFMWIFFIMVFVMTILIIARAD
T2 sequence (Q9GZZ6 25-450): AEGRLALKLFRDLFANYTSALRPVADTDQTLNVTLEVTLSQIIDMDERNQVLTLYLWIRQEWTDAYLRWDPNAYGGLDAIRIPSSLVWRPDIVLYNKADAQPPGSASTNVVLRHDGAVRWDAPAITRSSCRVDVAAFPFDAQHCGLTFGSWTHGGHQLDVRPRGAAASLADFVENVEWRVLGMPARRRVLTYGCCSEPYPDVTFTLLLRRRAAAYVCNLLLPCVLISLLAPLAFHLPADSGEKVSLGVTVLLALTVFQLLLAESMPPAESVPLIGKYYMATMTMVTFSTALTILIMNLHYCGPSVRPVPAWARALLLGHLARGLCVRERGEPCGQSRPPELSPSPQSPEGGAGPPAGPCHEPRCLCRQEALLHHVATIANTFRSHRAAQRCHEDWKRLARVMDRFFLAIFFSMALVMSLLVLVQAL
Description: (§1) FIGS. 13A-13B show inhibition concentration-response studies for chiral diMPP compounds (2R)PA-diMPP (8) and (2S)PA-diMPP (9), identified as α9 and α9α10 antagonists.
(§2) Experimental responses were measured relative to the preceding ACh control response. […] The transition from agonist to antagonist behavior in α7 to α9* nAChRs indicates a slightly bigger dialkyl tail on nitrogen, or perhaps more importantly, the asymmetry of the groups and potential for multiple rotamers is important for α9 agonism, while chirality is more important for α7 selectivity.
(§3) Two-electrode voltage-clamp experiments were conducted using OpusXpress 6000A (Molecular Devices, Union City CA, USA). Both the voltage and current electrodes were filled with 3 M KCl. Oocytes were voltage-clamped at −60 mV at room temperature. The oocytes were perfused with Ringer's solution (115 mM NaCl, 2.5 mM KCl, 1.8 mM CaCl2), 10 mM HEPES, 1 μM atropine, pH 7.2) at 2 ml/min. […] Drug applications were 12 s in duration followed by 181 s washout periods.

[5] = test system: BzATP-induced release of IL-1β by human monocytic THP-1 cells; assay: BzATP-induced release of IL-1β by LPS-primed monocytic THP-1 cells (ELISA); conditions: for inhibition of BzATP-induced release of IL-1β: LPS-primed THP-1 cells, ACh at 10 μM
Description: Monocytic THP-1 cells were primed with lipopolysaccharide (LPS; 1 μg/ml, 5 hours). Thereafter, the P2X7 receptor agonist BzATP (100 μM) was added for another 40 minutes to trigger IL-1β release. […] The IL-1β concentrations obtained after stimulation with BzATP+solvent were set to 100% and all other values were calculated accordingly. Data are presented as individual data points, the bar represents the median, and whiskers encompass the 25th to 75th percentile. *p≤0.05, different from LPS-primed cells stimulated with BzATP alone. Friedman test followed by the Wilcoxon signed-rank test.
The new compounds were tested for the ability to down-regulate the ATP-mediated release of 10 IL-1β by human monocytic THP-1 cells.
Monocytic THP-1 cells were primed with lipopolysaccharide (LPS, 1 μg/ml) for 5 hours and further stimulated them with BzATP (100 μg/ml) for 40 minutes to induce the maturation and release of IL-1β.
The monocytic THP-1 cell line was obtained from the German Collection of Microorganisms and Cell Cultures (Braunschweig, Germany). […] Thereafter, 0.5×10^6 cells/0.5 ml and per well were seeded in 48-well plates (Greiner Bio-One, Frickenhausen, Germany) as described previously.^27 The cells were primed with LPS (1 μg/ml; E. coli O26:B6, Merck, Darmstadt, Germany, Cat #L2654) for 5 h under 5% CO2 atmosphere at 37° C. […] After the treatment, cells were spun down (500 g, 8 min, 4° C.) to collect the cell-free supernatants, that were stored at −20° C. for later measurements of IL-1β and lactate dehydrogenase (LDH) activity.
To measure IL-1β concentrations in the cell-free supernatants the Human IL-1 beta/IL-1F2 DuoSet enzyme-linked immunosorbent assay (ELISA) from R&D Systems (Cat #DY201) was used according to the supplier's instructions. In parallel, LDH activity was measured to test for cell viability at the end of the cell culture experiments, using the CytoTox 96® Non-Radioactive Cytotoxicity Assay (Promega, Madison, WI, United States; Cat #G1780) according to the supplier's instructions.
Results obtained in the BzATP-induced IL-1β release experiments were analyzed using SPSS (Version 27, IBM, Armonk, NY, United States). The data were analyzed first by the Friedman test followed by the Wilcoxon signed-rank test. […] The number (n) of individual experiments is indicated in the Figures and refers to independent experiments, which were performed on different days with different cell passages.

α9 nAChR [6] = biological target: T1, α9 nAChR; assay: Inhibition of ACh-evoked currents, co-application with 60 μM ACh, oocytes expressing α9; type: cell-based; set-up: expressed in transfected cells; host or cells: Xenopus laevis oocytes injected with in vitro transcribed RNA; conditions: co-applied with 60 μM ACh; read-out: IC50 as antagonist on α9
Description: as §1, §2, §3

[7] = test system: CFA-induced paw edema in mice; assay: CFA-induced paw edema in mice; type: in vivo, mouse; conditions: CFA-treated mice; 10 mg/kg differing from vehicle
[8] = test system: locomotor activity of mice; assay: Locomotor activity of mice (photocell activity cages); type: in vivo, mouse; conditions: 10 mg/kg, compared to vehicle-treated animals
Description: Mechanical thresholds were elevated by treatments with II (FIGS. 5A-5D). […] Therefore, the data in FIGS. 5A-5D are the mean±SD scores for each condition. Statistical analysis was conducted using a Kruskal-Wallis test followed by Mann-Whitney rank sum test at each time point following II treatment.
Interruptions of the photocell beams (two banks of eight cells each) were then recorded for the next 60 min. Data are expressed as number of photocell interruptions.

[9] = test system: CFA-induced inflammatory pain in mice; conditions: mouse, in vivo
Description: Experiments were conducted using adult (10-15 weeks) male and female C57BL/6J mice from Jackson Laboratory (Bar Harbor ME, USA): α7 WT and KO mice on a C57BL/6J background. Mice null for the α7 subunit along with their WT littermates were initially procured from Jackson Laboratory and later bred in an approved animal care facility at Virginia Commonwealth University. The breeding scheme involved crossing heterozygous mice and backcrossing progeny for at least 12 to 15 generations, to control for irregularities that might occur crossing solely mutant animals, to generate both mutant and WT animals. […] Then mice were retrieved from the vivarium and housed (4-5 mice per cage) for the duration of the study in a temperature- and humidity-controlled out-of-vivarium space on the same light/dark cycle. They were given ad libitum food and water. All experiments were performed during the light cycle.
Mice were injected intraplantarly with 20 μl of CFA (50%, diluted in mineral oil; Sigma-Aldrich). Mechanical sensitivity (see the measurement of the von Frey test) was measured before and 3 days after CFA injection.
The mechanical threshold was expressed as log 10 of 10× force (in milligrams), indicating the force of the von Frey hair to which the animal reacted (paw withdrawn, licking, or shaking). All behavioral testing on animals was performed in a blinded manner.

[10] = Table 1, peak current, relative to ACh maximum
[11] = Table 4, chiral EMPPs and diMPPs
[12] = Table 1, unit not given (0.23 as 230 nM)
[13] = Table 1, net charge, relative to ACh maximum
[14] = read-out: α7 EC50, Table 1, unit inferred
[15] = read-out: α7 EC50, Table 4, unit inferred
[16] = read-out: α7 EC50, Table 2, unit inferred

human α7 nAChR, sequence (P36544 23-502): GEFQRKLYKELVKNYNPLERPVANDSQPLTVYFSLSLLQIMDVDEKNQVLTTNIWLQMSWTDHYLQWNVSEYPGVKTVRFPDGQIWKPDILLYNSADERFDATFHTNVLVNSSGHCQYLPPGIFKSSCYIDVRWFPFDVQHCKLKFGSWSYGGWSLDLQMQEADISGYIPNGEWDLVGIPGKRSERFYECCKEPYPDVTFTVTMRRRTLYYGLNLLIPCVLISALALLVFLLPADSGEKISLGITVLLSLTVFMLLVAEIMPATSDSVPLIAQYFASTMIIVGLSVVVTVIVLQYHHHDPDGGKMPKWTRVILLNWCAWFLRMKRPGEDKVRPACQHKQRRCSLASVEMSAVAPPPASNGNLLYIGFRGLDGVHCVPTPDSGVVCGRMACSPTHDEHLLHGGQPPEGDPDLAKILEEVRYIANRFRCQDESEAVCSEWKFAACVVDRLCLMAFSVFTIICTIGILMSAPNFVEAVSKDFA
T1 sequence (Q9UGM1 26-479 limits assumed): as the sequence (Q9UGM1 26-479 limits assumed) above

## CC[N+]1(C)CCN(c2ccc(C(=O)Nc3cccc(C)n3)cc2)CC1 [Compound 3f, reference compound]
α9 nAChR [1]; [10]
  α9 Imax: 1.19 ± 0.03
α9 nAChR [1]; [11]
  α9 Imax: 1.19 ± 0.03
α9 nAChR [1]; [12]
  EC50: 0.51 ± 0.07 µM
α9 nAChR [1]; Table 4, unit inferred
  EC50: 0.51 ± 0.07 µM
Plasma protein binding
  plasma protein binding: 32%
[2]
  clearance: low clearance
[3]
  clearance: low clearance
Human α7 nAChR; [13]
  α7 Imax: 0.40 ± 0.02
Human α7 nAChR; Table 4
  α7 Imax: 0.40 ± 0.02
Human α7 nAChR; [14]
  EC50: 6.1 ± 1.1 µM
Human α7 nAChR; [15]
  EC50: 6.1 ± 1.1 µM

## CC[N+]1(C)CCN(c2ccc(NC(C)=O)cc2)CC1 [Compound III, 4-(4-Acetamidophenyl)-1-ethyl-1-methylpiperazin-1-ium Iodide]
α9 nAChR [1]; [10]
  α9 Imax: 0.75 ± 0.04
α9 nAChR [1]; [12]
  EC50: 2.27 ± 0.49 µM
α9 nAChR [1]; α9
  increase in potency relative to ACh: 113 fold
α9 nAChR [4]
  EC50: 0.23 µM

## Cc1cccc(NC(=O)c2ccc(N3CC[N+](C)(C)[C@@H](C)C3)cc2)n1 [Compound IV-e]
α9α10 nAChR
  IC50: 4.33 ± 1.14 µM
α9 nAChR [1]
  receptor selectivity α9 vs α7: selective for α7
  type of activity at α9 / α9* nAChR: antagonists of the alpha 9 nicotinic acetylcholine receptor
α9 nAChR [1]; Table 2, chiral compounds
  α9 Imax: 0.04 ± 0.005
α9 nAChR [1]; [11]
  α9 Imax: 0.04 ± 0.005
α9 nAChR [1]; listed as (2S)PA-diMPP
  type of activity at α9 / α9* nAChR: lost nearly all agonist activity for α9* receptors
α9 nAChR [1]; Table 2, unit inferred
  EC50: 0.8 ± 0.6 µM
α9 nAChR [1]; Table 4, unit inferred
  EC50: 0.8 ± 0.6 µM
[5]
  inhibition of BzATP-induced release of IL-1β: significantly inhibited
[5]; all concentrations investigated (1 nM to 100 μM), ACh 10 μM
  antagonism of the effect of ACh on IL-1β release: significantly antagonized the effect of ACh
Human α7 nAChR; Table 2, chiral compounds
  α7 Imax: 0.397 ± 0.011
Human α7 nAChR; Table 4
  α7 Imax: 0.397 ± 0.01
Human α7 nAChR; [16]
  EC50: 3.49 ± 0.35 µM
Human α7 nAChR; [15]
  EC50: 3.49 ± 0.35 µM
α9 nAChR [6]
  IC50: 0.24 ± 0.11 µM

## CC[N+]1(C)CCN(c2ccc(NC(=O)c3cccc(Cl)n3)cc2)CC1 [V-b]
α9 nAChR [1]; Table 3, reverse amide GATs
  α9 Imax: 1.00 ± 0.18
α9 nAChR [4]
  EC50: 0.56 ± 0.065 µM
Human α7 nAChR
  EC50: 14 µM
Human α7 nAChR; Table 3
  α7 Imax: 0.10 ± 0.028

## CC[N+]1(C)CCN(c2ccc(NC(=O)c3ncc(C(F)(F)F)cc3Cl)cc2)CC1 [V-i]
α9 nAChR [1]; Table 3, reverse amide GATs
  α9 Imax: 1.23 ± 0.13
α9 nAChR [4]
  EC50: 0.81 ± 0.38 µM
Human α7 nAChR; Table 3
  α7 Imax: 0.001 ± 0.14

## CC[N+]1(C)CCN(c2ccc(NC(=O)c3cccc(F)n3)cc2)CC1 [V-c]
α9 nAChR [1]; Table 3, reverse amide GATs
  α9 Imax: 1.2 ± 0.13
α9 nAChR [4]
  EC50: 0.81 ± 0.38 µM
Human α7 nAChR; Table 3
  α7 Imax: 0.000 ± 0.000

## CC[N+]1(C)CCN(c2ccc(NC(=O)c3cccc(C)n3)cc2)CC1 [Compound II, 1-Ethyl-1-methyl-4-(4-(6-methylpicolinamido)phenyl)piperazin-1-ium iodide]
[7]
  paw edema: significantly reduced paw edema
[8]
  locomotor activity: did not significantly alter locomotor activity
α9 nAChR [1]
  type of activity at α9 / α9* nAChR: full agonist
α9 nAChR [1]; [10]
  α9 Imax: 1.01 ± 0.03
α9 nAChR [1]; [12]
  EC50: 0.23 ± 0.034 µM
[9]
  mechanical thresholds at the 72 h time point: no significant effects
Plasma protein binding
  plasma protein binding: 54%
[2]
  clearance: low clearance
[3]
  clearance: low clearance
Human α7 nAChR; [13]
  α7 Imax: 0.41 ± 0.025
Human α7 nAChR; [14]
  EC50: 78.3 ± 11.3 µM

## CC[N+]1(C)CCN(c2ccc(C(=O)Nc3cccc(C)n3)cc2)C[C@H]1C (stereo partly drawn) [Compound IV-a, (2R)-1-ethyl-1,2-dimethyl-4-(4-((6-methylpyridin-2-yl)carbamoyl)phenyl)piperazin-1-ium iodide]
α9 nAChR [1]
  receptor selectivity α9 vs α7: selective towards α7
α9 nAChR [1]; Table 2, chiral compounds
  α9 Imax: 0.0521 ± 0.013
α9 nAChR [1]; [11]
  α9 Imax: 0.052 ± 0.013
α9 nAChR [1]; Table 2, unit inferred
  EC50: 1.93 ± 2.25 µM
α9 nAChR [1]; Table 4, unit inferred
  EC50: 1.93 ± 2.25 µM
[5]; 1 nM
  inhibitory effect on IL-1β release at the lowest concentration tested: moderate but significant inhibitory effects
[5]
  inhibition of BzATP-induced release of IL-1β: significantly inhibited
Human α7 nAChR; Table 2, chiral compounds
  α7 Imax: 0.548 ± 0.02
Human α7 nAChR; Table 4
  α7 Imax: 0.55 ± 0.02
Human α7 nAChR; [16]
  EC50: 7.16 ± 1.29 µM
Human α7 nAChR; [15]
  EC50: 7.16 µM

## CC[N+]1(C)CCN(c2ccc(NC(=O)c3cccc(Br)n3)cc2)CC1 [V-a]
α9 nAChR [1]; Table 3, reverse amide GATs
  α9 Imax: 0.936 ± 0.04
α9 nAChR [4]
  EC50: 0.44 ± 0.108 µM
Human α7 nAChR
  EC50: 7.1 ± 3.17 µM
Human α7 nAChR; Table 3
  α7 Imax: 0.094 ± 0.012
